From patent US20100022457A1 (Bristol-Myers Squibb Company, priority 2006, published 2010)
Where two headings read alike, the source gives them in different places. Where a SMILES comes first, the peptide text is derived from it. [ ]: non-standard residue; d: D form. Ala(6-(2-MePh)pyridin-3-yl) = Cc1ccccc1-c1ccc(C[C@H](N)C(=O)O)cn1; Bip(2'-Et-4'-OMe) = CCc1cc(OC)ccc1-c1ccc(C[C@H](N)C(=O)O)cc1; αMePhe(2-F) = C[C@](N)(Cc1ccccc1F)C(=O)O; Aib = CC(C)(N)C(=O)O

Assays:
[1] = Dog pharmacokinetic study (intravenous and subcutaneous, 67 μg/kg); assay type: in vivo; conditions: for half-life: read-out: t1/2 (converted)
Description: The pharmacokinetic parameters of the compound of SEQ ID NO:9 were determined in male beagle dogs (n=4, 14±1 kg). Following an overnight fast, each animal received the compound of SEQ ID NO:9 either as an intravenous bolus via femoral vein (67 μg/kg) or by subcutaneous injection given at near the shoulder blades (67 μg/kg). Each animal received both intravenous and subcutaneous doses with a one-week washout between doses following a crossover design. […] Serial blood samples were collected in EDTA-containing microcentrifuge tubes at predose, 0.083, 0.25, 0.5, 0.75, 1, 2, 4, 6, 8, 24, and 30 hours post-dose after intravenous administration; at predose, 0.25, 0.5, 0.75, 1, 2, 4, 6, 8, 24, and 30 hours post-dose after subcutaneous administration. Approximately 0.3 mL of blood was collected at each time point. Blood samples were immediately centrifuged at 4° C. The obtained plasma was frozen with dry ice and stored at −20° C. Plasma drug levels were determined using the LC-MS/MS assay described above.
Plasma samples from in vivo dog study were prepared for analysis by precipitating plasma proteins with two volumes of acetonitrile containing an internal standard. The samples were vortex mixed and removed the precipitated proteins by centrifugation. The resulting supernatants were transferred to a 96-well plate and 10 μL were injected for analysis. Samples were prepared with the Packard Multiprobe II and Quadra 96 Liquid Handling System.
The HPLC system consisted of two Shimadzu LC10AD pumps (Columbia, Md.), a CTC PAL autosampler (Leap Technologies, Switzerland). The column used was a YMC Hydrosphere C18 (2.0×50 mm, 3 μm) (YMC, Inc., Milford, Mass.). The column temperature was maintained at 50° C. and the flow rate was 0.3 mL/minute. The mobile phase A consisted of 10 mM ammonium formate and 0.1% formic acid in water and mobile phase B consisted of 0.1% formic acid in acetonitrile. The initial mobile phase composition was 5% B, and remained at 5% B for one minute to equilibrate the column. The composition was ramped to 95% B over two minutes and held there for one additional minute. The mobile phase was then returned to initial conditions in one minute. Total analysis time was five minutes. A switching valve was used. The eluents between 0-1 minute were diverted to the waste.
The HPLC was interfaced to a Sciex API 4000 mass spectrometer, (Applied Biosystems, Foster City, Calif.) and was equipped with a TurboIonspray ionization source. Ultra high purity nitrogen was used as the nebulizing and turbo gas. The temperature of turbo gas was set at 300° C. and the interface heater was set at 60° C. Data acquisition utilized selected reaction monitoring (SRM). Ions representing the (M+2H)^2+ species for the compound of SEQ ID NO:9, and (M+2H)^2+ for BMS-501143 (IS) were selected in Q1 and were collisionally dissociated with high purity nitrogen at a pressure of 3.5×10^−3 torr to form specific product ions which were subsequently monitored by Q3.
The standard curve concentrations, ranging from 1 to 1000 nM and from 4 to 5000 nM, were used for the in vivo samples obtained from low and high doses, respectively. The curves were fitted with a quadratic regression weighted by reciprocal […]. Standards were analyzed in duplicate. Quality control (QC) samples, prepared in blank matrix at the same concentrations as the standard were also analyzed in each analytical set. For the compound of SEQ ID NO:9, the calculated concentrations of more than 80% of the QCs were within 20% of nominal concentration, indicating acceptable assay performance.
The compound of SEQ ID NO:9 plasma concentration vs. time data were analyzed by noncompartmental methods using the […]™ software program. The Cmax and Tmax values were recorded directly from experimental observations. The AUC0-n and AUCtot values were calculated using a combination of linear and log trapezoidal summations. […]

[2] = Exposure during ipGTT in ob/ob mice; assay type: in vivo, mouse; conditions: sc
C57BL/6J-ob/ob mice = experiment: Intraperitoneal glucose tolerance test (ipGTT) in ob/ob mice after subcutaneous injection; assay type: in vivo, mouse
Description: Peptides were dissolved in an appropriate vehicle at a concentration in nmol/ml equivalent to the dose that was to be administered in nmol/kg so that each mouse would receive the same volume/weight of dosing solution. Male C57BL/6J-ob/ob mice (10 weeks old) were randomized into groups of 6 mice per group based on fed plasma glucose and body weight. After an overnight fast, mice were weighed and placed in the experimental lab. After 30 min in the environment, the mice were bled via tail tip at −30 min and immediately injected subcutaneously (sc) with vehicle or the peptide dissolved in vehicle (0.1 ml solution/100 g body weight). At time 0 the mice were bled and then injected intraperitoneally with 50% glucose (2 g/kg) to initiate the intraperitoneal glucose tolerance test (ipGTT). The mice were bled 30, 60, 120 and 180 min after the glucose injection. Blood samples were drawn into potassium EDTA, placed on ice during the study and subsequently centrifuged for 10 min at 3000 rpm at 4° C. Plasma samples were diluted 1-fold for glucose analysis in the Cobas System. Another 5 μl plasma sample was diluted 5-fold with 20 μl of Sample Diluent (Insulin ELISA assay kit, Crystal Chem Inc.) and stored at −20° C. for subsequent analysis using the Ultra Sensitive Mouse Insulin ELISA kit (Crystal Chem Inc.).

[3] = Solubility of protamine/Compound of SEQ ID NO:9 adduct and in protamine solution; assay type: physicochemical
From the text: Thus, the administration of the protamine/Compound of SEQ ID NO:9 adduct may need a suitable suspending agent; or it maybe injected as dry powder.
Therefore, suspension of the compound of SEQ ID NO:9 in the presence of protamine could still provide extended release effect without using pre-formed protamine/SEQ ID NO:9 adduct.

[4] = male, beagle, plasma, 67 ug/kg, dog, intravenous 67 μg/kg, propylene glycol:phosphate buffer (50:50)
[5] = male, beagle, plasma, sc, 67 ug/kg, dog, subcutaneous 67 μg/kg, propylene glycol:phosphate buffer (50:50)

CCc1cc(OC)ccc1-c1ccc(C[C@H](NC(=O)[C@H](CC(=O)O)NC(=O)[C@H](CO)NC(=O)[C@@H](NC(=O)[C@](C)(Cc2ccccc2F)NC(=O)[C@@H](NC(=O)CNC(=O)[C@H](CCC(=O)O)NC(=O)C(C)(C)NC(=O)[C@@H](N)Cc2c[nH]cn2)[C@@H](C)O)[C@@H](C)O)C(=O)N[C@@H](Cc2ccc(-c3ccccc3C)nc2)C(N)=O)cc1 [SEQ ID NO: 9] (H-H[Aib]EGT[αMePhe(2-F)]TSD[Bip(2'-Et-4'-OMe)][Ala(6-(2-MePh)pyridin-3-yl)]-NH2)
Exposure in dogs (sc@67 μg/kg) ([1]; Table I, vehicle 0.2 M Tris buffer (pH 8.0)): 0.452 µM·h | Exposure in dogs (sc@67 μg/kg) ([1]; Table II, vehicle propylene glycol/pH 7.4 phosphate buffer (1:1)): 1.23 µM·h | Vss as % of extracellular fluid ([1]; dog, extracellular fluid 0.14 L/kg): 71 % of extracellular fluid | systemic clearance as % of liver blood flow ([1]; dog, liver blood flow 31 mL/min/kg): 3.2 % of liver blood flow | Vss as times of vascular fluid ([1]; dog, vascular fluid 0.05 L/kg): 2 times of vascular fluid | AUC [1, 4]: 1.27 ± 0.299 µM·h | MRT [1, 4]: 3 ± 1 h | clearance ([1]; male, beagle, plasma, 67 ug/kg, dog, intravenous 67 μg/kg, propylene glycol:phosphate buffer (50:50), read-out: CLp): 0.6 ± 0.1 mL/min/kg | Vd ([1]; male, beagle, plasma, 67 ug/kg, dog, intravenous 67 μg/kg, propylene glycol:phosphate buffer (50:50), read-out: VSS): 0.1 ± 0.03 L/kg | half-life [1, 4]: 5.1 ± 0.5 h | AUC [1, 5]: 1.22 ± 0.276 µM·h | MRT [1, 5]: 12.5 ± 2.4 h | Tmax [1, 5]: 5 ± 1 h | half-life [1, 5]: 6.9 ± 1.3 h | Cmax ([1]; male, beagle, plasma, sc, 67 ug/kg, dog, subcutaneous 67 μg/kg, text of b538, read-out: maximum plasma concentration (Cmax)): 90 ± 29 nM | clearance ([1]; male, beagle, whole blood, 67 ug/kg, dog, intravenous 67 μg/kg, propylene glycol:phosphate buffer (50:50), read-out: CLB (systemic clearance)): 0.9 ± 0.2 mL/min/kg | Exposure/dose during ipGTT in ob/ob mice [2]: 18 nM*h/nmol/kg | Potency in ob/ob mice: % AUC Reduction in Plasma Glucose in an IP Glucose Tolerance Test after SC Injection of Compound (C57BL/6J-ob/ob mice; 10 nmol/kg sc, relative to vehicle-treated group): −68% (p < 0.0001) | maximum increase in postprandial insulin AUC (C57BL/6J-ob/ob mice; 30 nmol/kg sc, ipGTT ob/ob mice): 187.7% | plasma glucose AUC decrease (C57BL/6J-ob/ob mice; 100 nmol/kg sc, ipGTT ob/ob mice): 85.8% | effect on postprandial plasma glucose (C57BL/6J-ob/ob mice; sc in ob/ob mice, between 0 and 180 or 210 minutes): statistically significant decrease | Potency in ob/ob mice ED50 (C57BL/6J-ob/ob mice; sc injection, plasma glucose AUC in ipGTT): 5 nmol/kg | solubility ([3]; MeOH): > 50 mg/mL | solubility as a function of protamine in the solution ([3]; pH 6.8, 50 mM PB buffer): decreases with increase of protamine in the solution
